These results are taken from patent publication EP4293034A1, “A NOVEL ACYLATED DERIVATE OF PHLORETIN AND ITS USE AS ANTIOXIDANT” (Consejo Superior de Investigaciones Científicas (CSIC), priority 2022, dated 2023).

For data set [1] the following is noted: (*) data from Gonzalez-Alfonso et al, 2021, cited from earlier work; for EC50: EC50 ± SD, read-out: ABTS assay EC50; for ABTS assay TEAC: TEAC ± SD.
For data set [2] the following is noted: water, 25 °C; (*) data from Gonzalez-Alfonso et al, 2021; cited from earlier work.
For data set [3] the following is noted: previously reported, Gonzalez-Alfonso et al, 2021; cited from earlier work.
For data set [4] the following is noted: (*) data from Gonzalez-Alfonso et al, 2021, cited from earlier work; for EC50: EC50 ± SD, read-out: DPPH assay EC50; for DPPH assay TEAC: TEAC ± SD.
Data set [5] can be described thus: Antioxidant activity, DPPH assay. It counts as biochemical. The note with it: n = 3. As for the experimental part: (§1) The capacity of the synthesized ester to reduce 2,2-diphenyl-1-picrylhydrazyl (DPPH) and the radical cation 2,2-azino-bis(3-ethylbenzothiazoline-6-sulfonic acid) diammonium salt (ABTS^·+) was assayed. (R)-Trolox was employed as antioxidant reference. Standard solutions with a concentration between 0 and 1000 µM for DPPH assay, and between 0 and 500 µM for ABTS assay, were prepared.

The next data set in a line: Aqueous solubility. The format is physicochemical. Particulars: water, 25 °C, 72 h. As for the experimental part:
The compound was incubated at 25 °C in water (saturated conditions) during 3 days under orbital stirring (1000 rpm). Then, the sample was centrifuged. A volume of 200 µL of the supernatant solution was analysed by triplicate, in a 96-well plate, using a phloretin calibration curve in methanol (0-200 µg/mL). The absorbance was measured by UV spectrophotometry (Tecan Infinite M200) at 297 nm.

A short description of data set [6]: In vitro percutaneous absorption on Franz static diffusion cells. The note with it: pig skin model, 24 h exposure, Figure 5. It counts as in vitro ADME. As for the experimental part:
The study was carried out in vitro with pig biopsies placed on Franz static diffusion cells (3 mL, 1.86 cm^2 of exposed area, diameter: […], Lara-Spiral, Courtenon, France) in order to determine the distribution of active compound (API) at the different skin layers, after an exposure time of 24 hours. The pig skin, provided by the Department of Cardiology of the Hospital Clinic (Barcelona, Spain), is considered morphologically and functionally equivalent to human skin for percutaneous absorption studies. Ultra-pure water was employed as receptor fluid, and cells were placed in a thermostated water bath (32 °C) containing a magnetic stirring device to obtain the skin surface temperature at 32 ± 1 °C. The integrity of the skin samples was evaluated by measuring the transepidermal water loss (TEWL) with Tewameter TM300 (Courage & Khazaka, Cologne, Germany) considering correct TEWL values under 15 g m^-2 h^-1. […] The different samples to be analyzed (W, SC, E, D and FR) were extracted and/or diluted in methanol (Merck, Darmstadt, Germany). The phloretin, its corresponding monoglucoside and acylated monoglucoside concentrations were analyzed by HPLC, as previously described. […] The results are shown as mean values (expressed as µg/cm2) ± standard deviations. […]

Data set [7] is described as follows: Antioxidant activity, ABTS assay. It counts as biochemical. Particulars: n = 3. The protocol:
as §1

The mark [8] stands for this setting: TEAC ± SD, calculated from EC50 of the acyl derivative and EC50 of (R)-Trolox.

Structures are written as SMILES. Values after ≈ are worked out from the molar mass of the structure shown. Like-named read-outs stand apart in the source and are kept apart here. Marks after values point to notes of the source that are not given here.

Take `O=C(CCc1ccc(O)cc1)c1c(O)cc(O)cc1O` [Phloretin, 2',4',6'-trihydroxy-3-(4-hydroxyphenyl)-propiophenone]: in data set [1], the EC50 was 11.7 ± 0.6 µM and the “ABTS assay TEAC” value is reported as 0.45 ± 0.04. The Solubility in data set [2] was 23.2 ± 0.3* mg/L. For the same compound, the “skin absorption (in words)” value in data set [3] is on record as “the same absorption pattern, without significant differences”. Moreover, in data set [4], the EC50 was 217 ± 14 µM and the “DPPH assay TEAC” value is reported as 6.2 ± 0.4.

Turning to `O=C(CCc1ccc(O)cc1)c1c(O)cc(O[C@H]2O[C@H](CO)[C@@H](O)[C@H](O)[C@H]2O)cc1O` [Phloretin 4'-O-α-D-(glucopyranoside), Phloretin 4'-O-α-D-Glucopyranoside], in data set [1], the EC50 is 16.9 ± 0.5 µM and the “ABTS assay TEAC” value is recorded as 0.64 ± 0.06. Moreover, in data set [4], the EC50 was 285 ± 20 µM and the “DPPH assay TEAC” value is reported as 8.1 ± 0.6.

Turning to `CCCCCCCCCCCC(=O)OC[C@H]1O[C@H](Oc2cc(O)c(C(=O)CCc3ccc(O)cc3)c(O)c2)[C@H](O)[C@@H](O)[C@@H]1O` [phloretin 4'-O-(6-O-lauroyl)-α-D-glucopyranoside], the EC50 was 439 ± 13 µM in data set [5] (EC50 ± SD) and 14.7 ± 0.7 µM in data set [7] (EC50 ± SD). In addition, the “DPPH assay TEAC” value in data set [5] (setting [8]) is on record as 11.4 ± 0.8. Besides, the Solubility in the data set “Aqueous solubility” was determined as 6.0 ± 0.2 µg/mL (≈ 9.7 µM). In addition, the “percutaneous absorption, increase versus phloretin and its α-glucoside” value is reported as “approx. 3 fold” in data set [6] (listed as acyl-glucoside of phloretin) and 3 fold in data set [6] (listed as acylglucoside of phloretin). For the same compound, in data set [7] (setting [8]), the “ABTS assay TEAC” value is listed as 0.47 ± 0.04.
